The supplement of paper PMC10307832

Legend:
Test in all cases: relative viability (nuclei count vs DMSO), 5 days (fraction); higher = more cells survive
[1] = compound: CC1=C(C(=NN1)C)CC2=C(C3=C(S2)N(C(=O)N(C3=O)C)CC(C)C)C(=O)N4C[C@@H](CO4)O + Nc1ncn([C@H]2C[C@H](O)[C@@H](CO)O2)c(=O)n1 [Decitabine] (partner 2 µM)
How it was run: (§1)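 Values are medians from duplicate plates. Each reflects relative viability, defined as the nuclei count of treated wells over that of vehicle wells. Lung cancer cell lines in 1536-well plates were pin-tool dosed one day after seeding with one drug alone or with a fixed anchor-drug dose plus five library-drug doses (not always all listed) in √10 steps, then fixed, stained and imaged at 4× after 5 days.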

[2] = compound: CC1=C(C(=NN1)C)CC2=C(C3=C(S2)N(C(=O)N(C3=O)C)CC(C)C)C(=O)N4C[C@@H](CO4)O + N=C(N)NC(=N)NCCc1ccccc1 [Phenformin] (partner 250 µM)
How it was run: as §1

[3] = compound: CC1=C(C(=NN1)C)CC2=C(C3=C(S2)N(C(=O)N(C3=O)C)CC(C)C)C(=O)N4C[C@@H](CO4)O + CC(=O)Nc1cccc(-n2c(=O)n(C3CC3)c(=O)c3c(Nc4ccc(I)cc4F)n(C)c(=O)c(C)c32)c1 [Trametinib] (partner 0.02 µM)
How it was run: as §1

[4] = compound: Cc1ccccc1C(C(=O)NC1CCCCC1)N(C(=O)Cn1ccnc1C)c1cccc(F)c1 [IDH-C35] + CC1(C)CCC(c2ccc(Cl)cc2)=C(CN2CCN(c3ccc(C(=O)NS(=O)(=O)c4ccc(N[C@H](CCN5CCOCC5)CSc5ccccc5)c(S(=O)(=O)C(F)(F)F)c4)cc3)CC2)C1 [Navitoclax] (partner 0.5 µM)
How it was run: as §1

Cell Line | relative viability ([1]; first compound 0.0025 µM) | relative viability ([1]; first compound 0.007906 µM) | relative viability ([1]; first compound 0.025 µM) | relative viability ([1]; first compound 0.07906 µM) | relative viability ([1]; first compound 0.25 µM) | relative viability ([2]; first compound 0.0025 µM) | relative viability ([2]; first compound 0.007906 µM) | relative viability ([2]; first compound 0.025 µM) | relative viability ([2]; first compound 0.07906 µM) | relative viability ([2]; first compound 0.25 µM) | relative viability ([3]; first compound 0.0025 µM) | relative viability ([3]; first compound 0.007906 µM) | relative viability ([3]; first compound 0.025 µM) | relative viability ([3]; first compound 0.07906 µM) | relative viability ([3]; first compound 0.25 µM) | relative viability ([4]; first compound 0.08 µM) | relative viability ([4]; first compound 0.253 µM) | relative viability ([4]; first compound 0.8 µM) | relative viability ([4]; first compound 2.53 µM) | relative viability ([4]; first compound 8 µM)
LC-2-ad | 0.776 | 0.8 | 0.877 | 0.8 | 0.871 | 0.604 | 0.59 | 0.528 | 0.573 | 0.648 | 0.928 | 0.874 | 0.922 | 0.896 | 0.927 | 0.544 | 0.589 | 0.467 | 0.427 | 0.331
CAL-12T |  |  |  |  |  | 0.551 | 0.627 | 0.544 | 0.629 | 0.575 | 0.402 | 0.464 | 0.372 | 0.379 | 0.405 | 1.32 | 1.19 | 1.06 | 1.36 | 1.09
RERF-LC-KJ | 0.852 | 0.739 | 0.766 | 0.656 | 0.678 | 0.434 | 0.46 | 0.431 | 0.428 | 0.481 | 0.898 | 0.94 | 0.838 | 0.883 | 0.909 | 0.901 | 0.735 | 1.02 | 1.25 | 0.832
NCI-H1650 | 0.365 | 0.424 | 0.388 | 0.292 | 0.309 | 0.536 | 0.473 | 0.457 | 0.506 | 0.46 | 0.626 | 0.687 | 0.759 | 0.62 | 0.788 | 1.23 | 1.21 | 1.19 | 1.24 | 1.17
BEN | 0.626 | 0.708 | 0.613 | 0.622 | 0.614 | 0.223 | 0.166 | 0.221 | 0.18 | 0.206 | 0.955 | 0.927 | 0.922 | 0.862 | 0.826 | 0.0634 | 0.062 | 0.0706 | 0.0643 | 0.0666
EMC-BAC-2 | 1.03 | 1.01 | 1.03 | 1.03 | 1.03 | 0.538 | 0.548 | 0.518 | 0.478 | 0.601 | 0.902 | 0.904 | 0.938 | 0.892 | 0.986 | 1.13 | 1.12 | 1.15 | 1.12 | 1.14
LU99A | 0.784 | 0.979 | 0.825 | 0.901 | 0.976 | 0.84 | 1.06 | 0.798 | 0.898 | 0.927 | 0.522 | 0.606 | 0.452 | 0.57 | 0.532 | 0.702 | 0.814 | 0.871 | 0.925 | 0.781
